Patent US20140336259A1, “PHENOLIC COMPOUNDS WITH ANTIOXIDANT AND ANTI-CANCER PROPERTIES, ANALOGS AND SYNTHESIS THEREOF” (priority 2011, published 2014)
In brackets after ≈: the same amount, converted by molar mass. Several values for one entry are separate records, joined by “and”; a condition that tells them apart may be missing. Equal values may be shown once. Read-outs that look alike come from different tables or passages of the source.

How the values were obtained:
[1] = tested on: MDA-MB-231 (ER negative) human breast cancer cells; test: MTS antiproliferative/cytotoxicity assay on MDA-MB-231 cells; format: cell-based
[2] = tested on: MCF-7 (estrogen receptor (ER) positive) human breast cancer cells; test: MTS antiproliferative/cytotoxicity assay on MCF-7 cells; conditions: for MCF-7 IC50: 72 h treatment, mean ± S.D., vs DMSO 0.5% control; for antiproliferative / cytotoxic activity in words: against MCF-7 cells and MDA-MB 231 cells, 72 h of treatment
colon cancer cell lines = conditions: Gonzales-Sarrias et al. 2011; cited from earlier work
[3] = Homo sapiens, MDA-MB-231, 72 h, 72 h, read-out: IC50 MDA-MB-231 72 h
[4] = Homo sapiens, MDA-MB-231, 72 h, 72 h treatment, mean ± S.D., vs DMSO 0.5% control, read-out: MDA-MB-231 IC50
[5] = Homo sapiens, MDA-MB-231, 96 h, 96 h, read-out: IC50 MDA-MB-231 96 h
[6] = read-out: IC50 MCF-7 72 h, 72 h
[7] = read-out: IC50 MCF-7 96 h, 96 h
[8] = Homo sapiens, MDA-MB-231, 24 h, 24 h, read-out: IC50 MDA-MB-231 24 h
[9] = Homo sapiens, MDA-MB-231, 48 h, read-out: IC50 MDA-MB-231 48 h, 48 h
[10] = read-out: IC50 MCF-7 24 h, 24 h
[11] = read-out: IC50 MCF-7 48 h, 48 h

SMILES	IC50 [1, 3]	IC50 [1, 4]	IC50 [1, 5]	MCF-7 IC50 [2]	IC50 MCF-7 96 h ([2]; 96 h)	antiproliferative / cytotoxic activity in words [2]	IC50 [2, 6]	IC50 [2, 7]	IC50 [1, 8]	IC50 [1, 9]	IC50 MCF-7 24 h ([2]; 24 h)	IC50 MCF-7 48 h ([2]; 48 h)	IC50 [2, 10]	IC50 [2, 11]	other results
COc1cc(C(O)c2ccccc2OC)ccc1OCc1ccccc1 (stereo not shown) [QB12]	67.2 µg/mL and 192 µM	62.9 to 77.4 µg/mL	58 µg/mL and 165 µM	65.0 ± 1.4 µg/mL	59.6 µg/mL (≈ 170 µM)	moderate cytotoxic activity	185 µM	170 µM	–	–	–	–	–	–	–
COc1cc(C(O)c2ccc(OCc3ccccc3)c(OC)c2)ccc1OCc1ccccc1 [QB46]	62.9 µg/mL and 138 µM	62.9 to 77.4 µg/mL	53 µg/mL and 116 µM	44.8 ± 1.7 µg/mL	36.8 µg/mL (≈ 80.6 µM)	moderate cytotoxic activity	98.1 µM	80.7 µM	78.3 µg/mL and 172 µM	72.4 µg/mL and 159 µM	73.2 µg/mL (≈ 160 µM)	59.5 µg/mL (≈ 130 µM)	160 µM	130 µM	–
CCOC(=O)C(c1ccc(OCc2ccccc2)c(OC)c1)C(c1ccc(OCc2ccccc2)c(OC)c1)c1ccc(OCc2ccccc2)c(OC)c1 (stereo not shown) [QB56]	136 µg/mL and 185 µM	136 ± 3.7 µg/mL	129 µg/mL and 176 µM	138.1 ± 3.1 µg/mL	124.9 µg/mL (≈ 169 µM)	–	188 µM	170 µM	–	143 µg/mL and 195 µM	–	–	–	–	–
CCOC(=O)C(c1ccc(O)c(OC)c1)C(c1ccc(O)c(OC)c1)c1ccc(O)c(OC)c1 (stereo not shown) [QB57]	85.1 µg/mL and 182 µM	85.1 ± 1.8 µg/mL	73.8 µg/mL and 158 µM	–	–	–	–	–	–	–	–	–	–	–	–
COc1cc(C(CO)C(c2ccc(O)c(OC)c2)c2ccc(O)c(OC)c2)ccc1O (stereo not shown) [QUEBECOL SYNTHETIC, 4,4′,4″-(3-Hydroxypropane-1,1,2-triyl)tris(2-methoxyphenol)]	–	–	–	44.4 ± 1.8 µg/mL	38.0 µg/mL (≈ 89.1 µM)	–	104 µM	89.1 µM	–	–	67.2 µg/mL (≈ 158 µM)	54.2 µg/mL (≈ 127 µM)	158 µM	127 µM	IC50 MDA-MB-231 24 h ([1]; 24 h): 72.5 µg/mL (≈ 170 µM); IC50 ([1]; 24 h, read-out: IC50 MDA-MB-231 24 h): 170 µM; IC50 MDA-MB-231 48 h ([1]; 48 h): 55.6 µg/mL (≈ 130 µM); IC50 MDA-MB-231 72 h ([1]; 72 h): 48.5 µg/mL (≈ 114 µM); IC50 ([1]; 72 h, read-out: IC50 MDA-MB-231 72 h): 114 µM; MDA-MB-231 IC50 ([1]; 72 h treatment, mean ± S.D., vs DMSO 0.5% control): 48.5 ± 1.9 µg/mL; IC50 MDA-MB-231 96 h ([1]; 96 h): 43.8 µg/mL (≈ 103 µM); IC50 ([1]; 96 h, read-out: IC50 MDA-MB-231 96 h): 103 µM; IC50 ([1]; read-out: IC50 MDA-MB-231 48 h, 48 h): 130 µM
COc1cc(C(CO)C(c2ccc(O)c(OC)c2)c2ccc(O)c(OC)c2)ccc1O (stereo not shown) [QUEBECOL, 4,4′,4″-(3-Hydroxypropane-1,1,2-triyl)tris(2-methoxyphenol)]	50.7 µg/mL and 119 µM	50.7 ± 2.4 µg/mL	43.3 µg/mL and 102 µM	46.3 ± 2.1 µg/mL	37.4 µg/mL (≈ 87.7 µM)	–	–	–	70.9 µg/mL and 166 µM	57 µg/mL and 134 µM	65.9 µg/mL (≈ 155 µM)	53.5 µg/mL (≈ 125 µM)	–	–	cytotoxic effect on colon cancer cell lines (colon cancer cell lines): cytotoxic effect; IC50 ([1]; Homo sapiens, MDA-MB-231, 24 h, 24 h, combination study Table 5B, T starting 50 μM, Q starting 200 μM, read-out: IC50 MDA-MB-231 24 h): 166 µM; IC50 ([1]; Homo sapiens, MDA-MB-231, 48 h, read-out: IC50 MDA-MB-231 48 h, 48 h, combination study Table 5B): 134 µM; IC50 ([1]; Homo sapiens, MDA-MB-231, 72 h, 72 h, combination study Table 5B, read-out: IC50 MDA-MB-231 72 h): 119 µM; IC50 ([1]; Homo sapiens, MDA-MB-231, 96 h, 96 h, combination study Table 5B, read-out: IC50 MDA-MB-231 96 h): 102 µM; MCF-7 IC50 ([2]; listed as QUEBECOL Natural): 46.3 ± 2.1 µg/mL; IC50 ([2]; read-out: IC50 MCF-7 24 h, 24 h, combination study Table 5A, T starting 50 μM, Q starting 200 μM): 155 µM; IC50 ([2]; read-out: IC50 MCF-7 24 h, 24 h, listed as QUEBECOL Natural): 155 µM; IC50 ([2]; read-out: IC50 MCF-7 48 h, 48 h, combination study Table 5A): 126 µM; IC50 ([2]; read-out: IC50 MCF-7 48 h, 48 h, listed as QUEBECOL Natural): 126 µM; IC50 ([2]; read-out: IC50 MCF-7 72 h, 72 h, combination study Table 5A): 109 µM; IC50 ([2]; read-out: IC50 MCF-7 72 h, 72 h, listed as QUEBECOL Natural): 109 µM; IC50 ([2]; read-out: IC50 MCF-7 96 h, 96 h, combination study Table 5A): 87.9 µM; IC50 ([2]; read-out: IC50 MCF-7 96 h, 96 h, listed as QUEBECOL Natural): 87.9 µM
